Source: patent US20250230193A1, “CYCLIC COMPOUND HAVING SELECTIVE KRAS INHIBITORY EFFECT ON HRAS AND NRAS” (CHUGAI SEIYAKU KABUSHIKI KAISHA, priority 2022, published 2025)

Tests used:
[1] = target: GDP-bound NRAS wild-type protein (Homo sapiens, UniProt P01111); assay: Binding to NRAS by surface plasmon resonance (SPR), Single Cycle Kinetics; settings: SPR; KD ratio class
[2] = tested on: human lung cancer strain NCI-H441; settings: read-out: NCI-H441 IC50; NCI-H441 cells, 4 days, CellTiter-Glo
[3] = target: GDP-bound HRAS wild-type protein (Homo sapiens, UniProt P01112); assay: Binding to HRAS by surface plasmon resonance (SPR), Single Cycle Kinetics; settings: SPR; KD ratio class
Chain of GDP-bound HRAS wild-type protein (P01112 whole entry): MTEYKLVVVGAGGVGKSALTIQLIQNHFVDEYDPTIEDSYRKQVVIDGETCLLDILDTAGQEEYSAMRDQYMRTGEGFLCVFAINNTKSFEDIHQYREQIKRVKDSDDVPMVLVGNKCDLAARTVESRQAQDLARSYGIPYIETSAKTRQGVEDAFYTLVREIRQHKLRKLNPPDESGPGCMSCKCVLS

[4] = target: GDP-bound KRAS wild-type protein (Homo sapiens, UniProt P01116); assay: Binding to KRAS by surface plasmon resonance (SPR), Single Cycle Kinetics; settings: SPR, Single Cycle Kinetics; GDP-bound KRAS wild-type protein

Chain of GDP-bound NRAS wild-type protein (P01111 whole entry): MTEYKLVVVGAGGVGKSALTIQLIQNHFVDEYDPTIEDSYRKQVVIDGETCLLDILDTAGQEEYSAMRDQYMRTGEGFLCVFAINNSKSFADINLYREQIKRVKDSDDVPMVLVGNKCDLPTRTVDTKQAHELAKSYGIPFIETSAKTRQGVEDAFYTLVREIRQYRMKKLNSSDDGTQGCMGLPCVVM

## CCO[C@@H]1C[C@H]2C(=O)NC3(CCC3)C(=O)N(C)[C@@H](C3CCCC3)C(=O)N(C)[C@H](C(=O)N(C)C)CC(=O)N(C)[C@@H](CC(C)C)C(=O)N[C@@H]([C@@H](C)CC)C(=O)N(C)CC(=O)N(C)[C@H]3C/C=C\CCN(C3=O)[C@@H](Cc3ccc(C(F)(F)F)cc3)C(=O)N(C)CC(=O)N[C@@H](CCc3ccc(C(F)(F)F)c(OC)c3)C(=O)N2C1 [PP1245]
[1]
  NRAS/KRAS (ratio of KD value for GDP-bound NRAS wild-type protein to KD value for KRAS): A (a compound having 10 or more and less than 20 is denoted as A)
[2]
  IC50: 3.7 nM
[3]
  HRAS/KRAS (ratio of KD value for GDP-bound HRAS wild-type protein to KD value for KRAS): B (a compound having 3 or more and less than 10 is denoted as B)
[4]
  Kd: 0.06 nM

## CCCCCC[C@H]1C(=O)N[C@@H]([C@@H](C)CC)C(=O)N(C)CC(=O)N(C)[C@H]2C/C=C\CCN(C2=O)[C@@H](Cc2ccc(C(F)(F)F)cc2)C(=O)N(C)CC(=O)N[C@@H](CCc2ccc(C(F)(F)F)c(OC)c2)C(=O)N2C[C@H](OCC)C[C@H]2C(=O)NC2(CCC2)C(=O)N(C)[C@@H](C2CCCC2)C(=O)N(C)[C@H](C(=O)N(C)C)CC(=O)N1C [PP1246]
[1]
  NRAS/KRAS (ratio of KD value for GDP-bound NRAS wild-type protein to KD value for KRAS): A (a compound having 10 or more and less than 20 is denoted as A)
[2]
  IC50: 9 nM
[3]
  HRAS/KRAS (ratio of KD value for GDP-bound HRAS wild-type protein to KD value for KRAS): A (a compound having 10 or more and less than 20 is denoted as A)
[4]
  Kd: 0.081 nM

## CCO[C@@H]1C[C@H]2C(=O)NC3(CCC3)C(=O)N(C)[C@@H](C3CCCC3)C(=O)N(C)[C@H](C(=O)N(C)C)CC(=O)N(C)[C@@H](CC3CC3)C(=O)N[C@@H]([C@@H](C)CC)C(=O)N(C)CC(=O)N(C)[C@H]3C/C=C\CCN(C3=O)[C@@H](Cc3ccc(C(F)(F)F)cc3)C(=O)N(C)CC(=O)N[C@@H](CCc3ccc(C(F)(F)F)c(OC)c3)C(=O)N2C1 [PP1247]
[1]
  NRAS/KRAS (ratio of KD value for GDP-bound NRAS wild-type protein to KD value for KRAS): A (a compound having 10 or more and less than 20 is denoted as A)
[2]
  IC50: 6.4 nM
[3]
  HRAS/KRAS (ratio of KD value for GDP-bound HRAS wild-type protein to KD value for KRAS): A (a compound having 10 or more and less than 20 is denoted as A)
[4]
  Kd: 0.046 nM

## CCO[C@@H]1C[C@H]2C(=O)NC3(CCC3)C(=O)N(C)[C@@H](C3CCCC3)C(=O)N(C)[C@H](C(=O)N(C)C)CC(=O)N(C)[C@@H](CC3CC3)C(=O)N[C@@H]([C@@H](C)CC)C(=O)N(C)CC(=O)N(C)[C@H]3C/C=C\CCN(C3=O)[C@@H](Cc3ccc(C(F)(F)F)cc3)C(=O)N(C)CC(=O)N[C@@H](CCc3ccc(Cl)c(Cl)c3)C(=O)N2C1 [PP1253]
[1]
  NRAS/KRAS (ratio of KD value for GDP-bound NRAS wild-type protein to KD value for KRAS): A (a compound having 10 or more and less than 20 is denoted as A)
[2]
  IC50: 22.2 nM
[3]
  HRAS/KRAS (ratio of KD value for GDP-bound HRAS wild-type protein to KD value for KRAS): A (a compound having 10 or more and less than 20 is denoted as A)
[4]
  Kd: 0.2 nM

## CCO[C@@H]1C[C@H]2C(=O)NC3(CCC3)C(=O)N(C)[C@@H](C3CCCC3)C(=O)N(C)[C@H](C(=O)N(C)C)CC(=O)N(C)[C@@H](CC3CCCC3)C(=O)N[C@@H]([C@@H](C)CC)C(=O)N(C)CC(=O)N(C)[C@H]3C/C=C\CCN(C3=O)[C@@H](Cc3ccc(C(F)(F)F)cc3)C(=O)N(C)CC(=O)N[C@@H](CCc3ccc4sccc4c3)C(=O)N2C1 [PP1261]
[1]
  NRAS/KRAS (ratio of KD value for GDP-bound NRAS wild-type protein to KD value for KRAS): A (a compound having 10 or more and less than 20 is denoted as A)
[2]
  IC50: 76.8 nM
[3]
  HRAS/KRAS (ratio of KD value for GDP-bound HRAS wild-type protein to KD value for KRAS): A (a compound having 10 or more and less than 20 is denoted as A)
[4]
  Kd: 0.44 nM

## CCOC[C@H]1C(=O)N[C@@H]([C@@H](C)CC)C(=O)N(C)CC(=O)N(C)[C@H]2C/C=C\CCN(C2=O)[C@@H](Cc2ccc(C(F)(F)F)cc2)C(=O)N(C)CC(=O)N[C@@H](CCc2cc(F)c(C(F)(F)F)c(F)c2)C(=O)N2C[C@H](OCC)C[C@H]2C(=O)NC2(CCC2)C(=O)N(C)[C@@H](C2CCCC2)C(=O)N(C)[C@H](C(=O)N(C)C)CC(=O)N1C [PP1266]
[1]
  NRAS/KRAS (ratio of KD value for GDP-bound NRAS wild-type protein to KD value for KRAS): A (a compound having 10 or more and less than 20 is denoted as A)
[2]
  IC50: 12.2 nM
[3]
  HRAS/KRAS (ratio of KD value for GDP-bound HRAS wild-type protein to KD value for KRAS): A (a compound having 10 or more and less than 20 is denoted as A)
[4]
  Kd: 0.045 nM

## CCO[C@@H]1C[C@H]2C(=O)NC3(CCC3)C(=O)N(C)[C@@H](C3CCCC3)C(=O)N(C)[C@H](C(=O)N(C)C)CC(=O)N(C)[C@@H](COCC(F)(F)F)C(=O)N[C@@H]([C@@H](C)CC)C(=O)N(C)CC(=O)N(C)[C@H]3C/C=C\CCN(C3=O)[C@@H](Cc3ccc(C(F)(F)F)cc3)C(=O)N(C)CC(=O)N[C@@H](CCc3cc(F)c(C(F)(F)F)c(F)c3)C(=O)N2C1 [PP1267]
[1]
  NRAS/KRAS (ratio of KD value for GDP-bound NRAS wild-type protein to KD value for KRAS): A (a compound having 10 or more and less than 20 is denoted as A)
[2]
  IC50: 10.8 nM
[3]
  HRAS/KRAS (ratio of KD value for GDP-bound HRAS wild-type protein to KD value for KRAS): A (a compound having 10 or more and less than 20 is denoted as A)
[4]
  Kd: 0.046 nM

## CCO[C@@H]1C[C@H]2C(=O)NC3(CCC3)C(=O)N(C)[C@@H](C3CCCC3)C(=O)N(C)[C@H](C(=O)N(C)C)CC(=O)N(C)[C@@H](COC3CC3)C(=O)N[C@@H]([C@@H](C)CC)C(=O)N(C)CC(=O)N(C)[C@H]3C/C=C\CCN(C3=O)[C@@H](Cc3ccc(C(F)(F)F)cc3)C(=O)N(C)CC(=O)N[C@@H](CCc3cc(F)c(C(F)(F)F)c(F)c3)C(=O)N2C1 [PP1268]
[1]
  NRAS/KRAS (ratio of KD value for GDP-bound NRAS wild-type protein to KD value for KRAS): A (a compound having 10 or more and less than 20 is denoted as A)
[2]
  IC50: 12.1 nM
[3]
  HRAS/KRAS (ratio of KD value for GDP-bound HRAS wild-type protein to KD value for KRAS): A (a compound having 10 or more and less than 20 is denoted as A)
[4]
  Kd: 0.045 nM

## CC[C@H](C)[C@@H]1NC(=O)[C@H](C)N(C)C(=O)C[C@@H](C(=O)N(C)C)N(C)C(=O)[C@H](C2CCCC2)N(C)C(=O)C2(CCC2)NC(=O)[C@@H]2CCCN2C(=O)[C@H](CCc2cc(F)c(C(F)(F)F)c(F)c2)NC(=O)CN(C)C(=O)[C@H](Cc2ccc(C(F)(F)F)cc2)N2CC/C=C\C[C@@H](C2=O)N(C)C(=O)CN(C)C1=O [PP1271]
[1]
  NRAS/KRAS (ratio of KD value for GDP-bound NRAS wild-type protein to KD value for KRAS): AA (a compound having 20 or more is denoted as AA)
[2]
  IC50: 90.7 nM
[3]
  HRAS/KRAS (ratio of KD value for GDP-bound HRAS wild-type protein to KD value for KRAS): A (a compound having 10 or more and less than 20 is denoted as A)
[4]
  Kd: 0.054 nM

## CCO[C@@H]1C[C@H]2C(=O)NC3(CCCC3)C(=O)N(C)[C@@H](C3CCCC3)C(=O)N(C)[C@H](C(=O)N(C)C)CC(=O)N(C)[C@@H](CC)C(=O)N[C@@H]([C@@H](C)CC)C(=O)N(C)CC(=O)N(C)[C@H]3C/C=C\CCN(C3=O)[C@@H](Cc3ccc(C(F)(F)F)cc3)C(=O)N(C)CC(=O)N[C@@H](CCc3cc(F)c(C(F)(F)F)c(F)c3)C(=O)N2C1 [PP1276]
[1]
  NRAS/KRAS (ratio of KD value for GDP-bound NRAS wild-type protein to KD value for KRAS): A (a compound having 10 or more and less than 20 is denoted as A)
[2]
  IC50: 20.8 nM
[3]
  HRAS/KRAS (ratio of KD value for GDP-bound HRAS wild-type protein to KD value for KRAS): B (a compound having 3 or more and less than 10 is denoted as B)
[4]
  Kd: 0.066 nM

## CCO[C@@H]1C[C@H]2C(=O)NC3(CCC3)C(=O)N(C)[C@@H](C3CCCC3)C(=O)N(C)[C@H](C(=O)N3CCCC3)CC(=O)N(C)[C@@H](CC3CC3)C(=O)N[C@@H]([C@@H](C)CC)C(=O)N(C)CC(=O)N(C)[C@H]3C/C=C\CCN(C3=O)[C@@H](Cc3ccc(C(F)(F)F)cc3)C(=O)N(C)CC(=O)N[C@@H](CCc3cc(F)c(C(F)(F)F)c(F)c3)C(=O)N2C1 [PP1296]
[1]
  NRAS/KRAS (ratio of KD value for GDP-bound NRAS wild-type protein to KD value for KRAS): AA (a compound having 20 or more is denoted as AA)
[2]
  IC50: 14.7 nM
[3]
  HRAS/KRAS (ratio of KD value for GDP-bound HRAS wild-type protein to KD value for KRAS): A (a compound having 10 or more and less than 20 is denoted as A)
[4]
  Kd: 0.12 nM

## CCC[C@H]1C(=O)N[C@@H]([C@@H](C)CC)C(=O)N(C)CC(=O)N(C)[C@H]2C/C=C\CCN(C2=O)[C@@H](Cc2ccc(C(F)(F)F)cc2)C(=O)N(C)CC(=O)N[C@@H](CCc2cc(F)c(C(F)(F)F)c(F)c2)C(=O)N2C[C@H](OCC)C[C@H]2C(=O)NC2(CCC2)C(=O)N(C)[C@@H](C2CCCC2)C(=O)N(C)[C@H](C(=O)N2CCCC2)CC(=O)N1C [PP1299]
[1]
  NRAS/KRAS (ratio of KD value for GDP-bound NRAS wild-type protein to KD value for KRAS): A (a compound having 10 or more and less than 20 is denoted as A)
[2]
  IC50: 11 nM
[3]
  HRAS/KRAS (ratio of KD value for GDP-bound HRAS wild-type protein to KD value for KRAS): A (a compound having 10 or more and less than 20 is denoted as A)
[4]
  Kd: 0.14 nM

## CCCC[C@H]1C(=O)N[C@@H]([C@@H](C)CC)C(=O)N(C)CC(=O)N(C)[C@H]2C/C=C\CCN(C2=O)[C@@H](Cc2ccc(C(F)(F)F)cc2)C(=O)N(C)CC(=O)N[C@@H](CCc2cc(F)c(C(F)(F)F)c(F)c2)C(=O)N2C[C@H](OCC)C[C@H]2C(=O)NC2(CCCC2)C(=O)N(C)[C@@H](C2CCCC2)C(=O)N(C)[C@H](C(=O)N(C)C)CC(=O)N1C [PP1397]
[1]
  NRAS/KRAS (ratio of KD value for GDP-bound NRAS wild-type protein to KD value for KRAS): A (a compound having 10 or more and less than 20 is denoted as A)
[2]
  IC50: 3.7 nM
[3]
  HRAS/KRAS (ratio of KD value for GDP-bound HRAS wild-type protein to KD value for KRAS): A (a compound having 10 or more and less than 20 is denoted as A)
[4]
  Kd: 0.073 nM
